From ChEMBL document CHEMBL1125222, “Activity of N6-substituted 2-chloroadenosines at A1 and A2 adenosine receptors” (J Med Chem, 1991)
pEC50, pKi: −log10 of the molar value.

Legend:
[1] = Effective concentration against A2AR mediated P12 adenylatencyclase activity; format: functional, Rattus norvegicus
Adenosine receptor A1 [2] = biological target: T1, Adenosine receptor A1 (Rattus norvegicus, UniProt P25099); assay: Inhibition of [3H]- (R)-P1A binding to adenosine A1 receptor
T1 sequence (P25099 whole entry): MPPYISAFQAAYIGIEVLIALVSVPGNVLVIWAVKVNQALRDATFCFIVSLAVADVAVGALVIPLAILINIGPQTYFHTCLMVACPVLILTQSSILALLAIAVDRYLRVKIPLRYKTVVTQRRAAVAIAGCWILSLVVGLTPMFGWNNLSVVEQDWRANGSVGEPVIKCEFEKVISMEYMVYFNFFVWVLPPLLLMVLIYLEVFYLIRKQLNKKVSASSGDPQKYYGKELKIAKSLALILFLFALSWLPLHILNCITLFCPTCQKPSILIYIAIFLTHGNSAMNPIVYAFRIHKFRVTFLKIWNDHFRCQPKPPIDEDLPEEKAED

[3] = Concentration required to increase Adenosine A2A receptor mediated P12 Adenylate cyclase activity; format: functional, Rattus norvegicus
Adenosine A2 receptor = Adenosine A2 receptor (Rattus norvegicus, UniProt P29276+P30543); assay: Inhibition of [3H]- NECA binding to adenosine receptor A2; format: protein assay
Adenosine receptor A1 [4] = biological target: T1, Adenosine receptor A1

Row | SMILES | pEC50 [1] | pKi (Adenosine receptor A1 [2]) | pEC50 [3] | Ki (Adenosine A2 receptor) [µM] | pKi (Adenosine receptor A1 [4])
1 | OC[C@H]1O[C@@H](n2cnc3c(NC4CCCC4)nc(Cl)nc32)[C@H](O)[C@@H]1O | 6.14 | – | – | – | –
2 | Nc1nc(Cl)nc2c1ncn2[C@@H]1O[C@H](CO)[C@@H](O)[C@H]1O | – | 8.17 | 6.34 | – | –
3 | C[C@@H](Cc1ccccc1)Nc1nc(Cl)nc2c1ncn2[C@@H]1O[C@H](CO)[C@@H](O)[C@H]1O | 5.52 | – | – | 3 | 7.70
4 | C[C@H](Cc1ccccc1)Nc1nc(Cl)nc2c1ncn2[C@@H]1O[C@H](CO)[C@@H](O)[C@H]1O | 6.49 | – | – | 0.22 | 8.85
5 | OC[C@H]1OC(n2cnc3c(Nc4ccccc4)nc(Cl)nc32)[C@H](O)[C@@H]1O (stereo not given in full) | 5.80 | – | – | 1.7 | 8.12
6 | C[C@H](Cc1ccccc1)Nc1ncnc2c1ncn2[C@@H]1O[C@H](CO)[C@@H](O)[C@H]1O [(R)-PIA] | 6.01 | – | – | – | –
7 | C[C@@H](Cc1ccccc1)Nc1ncnc2c1ncn2[C@@H]1O[C@H](CO)[C@@H](O)[C@H]1O [(S)-PIA] | – | – | 5.38 | – | –
8 | Nc1ncnc2c1ncn2[C@@H]1O[C@H](CO)[C@@H](O)[C@H]1O [ADENOSINE] | – | – | 6.82 | – | –
9 | OC[C@H]1O[C@@H](n2cnc3c(NC4CCCC4)ncnc32)[C@H](O)[C@@H]1O [N6-CYCLOPENTYLADENOSINE] | 5.49 | – | – | 0.51 | –
10 | OC[C@H]1O[C@@H](n2cnc3c(Nc4ccccc4)ncnc32)[C@H](O)[C@@H]1O [N6-PHENYLADENOSINE] | 5.51 | – | – | 1.2 | 7.80
